Several values for one entry are separate records, joined by “and”; a condition that tells them apart may be missing. Equal entries are not always repeated. Entries after “also recorded” stand apart in the source; their conditions may differ.
Tests used:
Type in all cases: in vivo
Ad5 [1] = assay: Ad5/NZW rabbit ocular model, combined analysis of Examples 3 and 5; conditions: n=20 eyes per group, FIG. 12
Ad5 McEwen = assay: Ad5/NZW rabbit ocular model, Example 3 (Ad-R1)
Description: The purpose of this study is to determine the antiviral efficacy of a 100 mg/ml solution of human Intra Venous Immune Globulin (IG) in the Ad5/NZW rabbit ocular model.
Fifteen NZW female rabbits 2-3 lbs were received from Myrtle's Rabbitry, Thompson Station, Tenn. Fifteen rabbits were inoculated in both eyes following general anesthesia with ketamine & xylazine, topical anesthesia with proparacaine, and corneal scarification (12 cross-hatched strokes of a #25 needle) with 50 μl of 3.0×10^7 pfu/ml (1.5×10^6 pfu/eye or 1.5×10^8 vp/eye) of Ad5 McEwen (Stock P3, Feb. 25, 05, 5.3×10^8 pfu/ml). Eyes were closed and gently rubbed for 5 seconds to ensure contact of the virus on all ocular surfaces.
Eyes were cultured for virus after at least 3 hours (Day 0) after infection. Following topical anesthesia with proparacaine, a single cotton-tipped swab was placed into the lower fornix of each eye, rolled over the cornea into the upper fornix to recover adenovirus from the tear film and corneal and conjunctival surfaces. The swabs from each eye were placed individually into tubes containing 1 ml of outgrowth media and were frozen at −70° C. pending plaque assay. On Day 1, rabbits were divided into 3 treatment groups of 5 rabbits each. Two masked solutions were received. One solution contained 100 mg/ml of IG (Gammagard S/D) and one solution contained pharmaceutical grade saline for use as the negative control. The positive antiviral control, 0.5% cidofovir was not masked because of the differences in treatment regimen. The solutions were stored at 4° C. until and during use.
Drops were administered with at least a 1 hour interval between drops. All eyes from all groups were cultured for virus on days 1, 3, 4, 5, 7, 9, 11, and 14 at least one hour after the final doses of the treatments described above. At various times during the course of the experiment, Ad5 titers were determined on A549 cell monolayers using a standard plaque assay. The ocular cultures to be titered were thawed, diluted (1:10) and inoculated onto A549 monolayers. The virus was adsorbed for 3 hours. Following adsorption, 1 ml of media plus 0.5% methylcellulose was added to each well, and the plates were incubated at 37° C. in a 5% CO2-water vapor atmosphere. After 7 days incubation, the cells were stained with 0.5% gentian violet, and the number of plaques were counted under a dissecting microscope (25×). The viral titers were then calculated, and expressed as plaque-forming units per milliliter (pfu/ml).
Analysis of Results: Data were analyzed statistically using True Epistat and/or Minitab statistical software. Outcome measures included: Ad5-Positive Cultures per Total (Overall [Days 1-14]; Early Phase of Infection [Days 1-5]; Late Phase of Infection [Days 7-14]), Daily Viral Titers, Mean Viral Titer (Early Phase of Infection [Days 1-5]; Late Phase of Infection [Days 7-14]), and Duration of Shedding. Significance was established at the p≦0.05 confidence level.
Duration of viral shedding is shown in Table 8 and was statistically analyzed. The duration of viral shedding in IG treated animals was 5.4 days (standard deviation of 0.84 days). In the Cidofovir treated animals, the duration of viral shedding was 5.0 (SD=1.25 days) while it was longer in the normal saline treated group: 7.2 days (SD=1.14 days). The significant finding is represented graphically in FIG. 8. In this analysis, IG was similar to Cidofovir in reducing the duration of viral shedding.

Ad5 [2] = assay: Ad5/NZW rabbit ocular model, combined analysis of Examples 3 and 5
Description: The following summarizes the in vivo studies provided in Examples 3 and 5. Data from the two studies were combined, analyzed by Minitab statistical software using Analysis of Variance (ANOVA), and X^2 analyses. Significance was established at the p<0.05 confidence.
The daily reduction in percent Ad5 positive cultures per total for all treatment groups is presented graphically in FIG. 4.
The mean combined Ad5 ocular titers represent a global measure of adenovirus replication during the early and late phases of infection. These were determined by calculating the mean and standard deviation of all ocular cultures from each treatment group during the early and late phases (n=80 for all groups).
The mean duration of shedding was estimated by determining the last day on which adenovirus positive cultures were obtained and calculating the mean and standard deviation.

[3] = Days 1-5, Early Phase of Infection
[4] = Days 7-14, Late Phase of Infection

Nc1ccn(C[C@@H](CO)OCP(=O)(O)O)c(=O)n1 [0.5% Cidofovir, Cidofovir]
Daily Ad5 positive cultures per total, comparison (words) (Ad5 [1]): significantly fewer Ad5 positive cultures per total compared with the Saline control on Days 7 and 9 | Daily Ad5 positive cultures per total, comparison (words) (Ad5 [1]; listed as cidofovir): significant decreases in the number of Ad5 positive cultures per total on Days 7 and 9 compared with the saline treated eyes | Daily Ad5 ocular titer, Median (Ad5 McEwen; D0): 2350 pfu/ml | Daily Ad5 ocular titer, TrMean (Ad5 McEwen; D0): 2988 pfu/ml | Daily Ad5 ocular titer, Mean (Ad5 McEwen; D0, N 10 eyes): 3214 pfu/ml | Ad5 ocular viral titer, individual eye (Ad5 McEwen; D 0, after infection, before treatment): 2450 pfu/ml and 1950 pfu/ml and 4250 pfu/ml and 1100 pfu/ml and 2250 pfu/ml and 6650 pfu/ml and 7200 pfu/ml and 3100 pfu/ml and 2150 pfu/ml and 1040 pfu/ml | Ad5 ocular viral titer, individual eye (Ad5 McEwen; D 1): 450 pfu/ml (2×) and 475 pfu/ml and 1000 pfu/ml and 5 pfu/ml and 550 pfu/ml (2×) and 1550 pfu/ml and 1800 pfu/ml and 330 pfu/ml | Daily Ad5 ocular titer, Mean (Ad5 McEwen; D 1): 716 pfu/ml | Daily Ad5 ocular titer, Median (Ad5 McEwen; D 1): 512 pfu/ml | Daily Ad5 ocular titer, TrMean (Ad5 McEwen; D 1): 669 pfu/ml | Ad5 ocular viral titer, individual eye (Ad5 McEwen; D 3): 4250 pfu/ml and 3800 pfu/ml and 2700 pfu/ml and 130 pfu/ml and 9350 pfu/ml and 8200 pfu/ml and 9300 pfu/ml and 100 pfu/ml and 350 pfu/ml and 210 pfu/ml | Daily Ad5 ocular titer, Mean (Ad5 McEwen; D 3): 3839 pfu/ml | Daily Ad5 ocular titer, Median (Ad5 McEwen; D 3): 3250 pfu/ml | Daily Ad5 ocular titer, TrMean (Ad5 McEwen; D 3): 3617 pfu/ml | Ad5 ocular viral titer, individual eye (Ad5 McEwen; D 4): 650 pfu/ml and 400 pfu/ml and 6700 pfu/ml and 1150 pfu/ml and 4700 pfu/ml and 2350 pfu/ml and 1800 pfu/ml and 25 pfu/ml and 0 pfu/ml and 80 pfu/ml | Daily Ad5 ocular titer, Mean (Ad5 McEwen; D 4): 1785 pfu/ml | Daily Ad5 ocular titer, Median (Ad5 McEwen; D 4): 900 pfu/ml | Daily Ad5 ocular titer, TrMean (Ad5 McEwen; D 4): 1394 pfu/ml | Ad5 ocular viral titer, individual eye (Ad5 McEwen; D 5): 550 pfu/ml and 10 pfu/ml and 1550 pfu/ml and 0 pfu/ml (3×) and 400 pfu/ml and 1400 pfu/ml and 1100 pfu/ml and 5 pfu/ml | Daily Ad5 ocular titer, Mean (Ad5 McEwen; D 5): 501 pfu/ml | Daily Ad5 ocular titer, Median (Ad5 McEwen; D 5): 205 pfu/ml | Daily Ad5 ocular titer, TrMean (Ad5 McEwen; D 5): 433 pfu/ml | Ad5 ocular viral titer, individual eye (Ad5 McEwen; D 7): 0 pfu/ml (8×) and 5 pfu/ml and 15 pfu/ml | Daily Ad5 ocular titer, Mean (Ad5 McEwen; D 7): 2.00 pfu/ml | Daily Ad5 ocular titer, Median (Ad5 McEwen; D 7): 0.00 pfu/ml | Daily Ad5 ocular titer, TrMean (Ad5 McEwen; D 7): 0.62 pfu/ml | Ad5 ocular viral titer, individual eye (Ad5 McEwen; D 9): 0 pfu/ml | Daily Ad5 ocular titer, Mean (Ad5 McEwen; D 9): 0.00000 pfu/ml | Daily Ad5 ocular titer, Median (Ad5 McEwen; D 9): 0.00000 pfu/ml | Daily Ad5 ocular titer, TrMean (Ad5 McEwen; D 9): 0.00000 pfu/ml | Ad5 ocular viral titer, individual eye (Ad5 McEwen; D 11): 0 pfu/ml | Daily Ad5 ocular titer, Mean (Ad5 McEwen; D 11): 0.00000 pfu/ml | Daily Ad5 ocular titer, Median (Ad5 McEwen; D 11): 0.00000 pfu/ml | Daily Ad5 ocular titer, TrMean (Ad5 McEwen; D 11): 0.00000 pfu/ml | Ad5 ocular viral titer, individual eye (Ad5 McEwen; D 14): 0 pfu/ml | Daily Ad5 ocular titer, Mean (Ad5 McEwen; D 14): 0.00000 pfu/ml | Daily Ad5 ocular titer, Median (Ad5 McEwen; D 14): 0.00000 pfu/ml | Daily Ad5 ocular titer, TrMean (Ad5 McEwen; D 14): 0.00000 pfu/ml | Positive Cultures per Total (Ad5 McEwen; Day 0, before treatment): 10/10 | Positive Cultures per Total, percent (Ad5 McEwen; Day 0, before treatment): 100% | Positive Cultures per Total (Ad5 McEwen; Day 1): 10/10 | Positive Cultures per Total, percent (Ad5 McEwen; Day 1): 100% | Positive Cultures per Total (Ad5 McEwen; Day 3): 10/10 | Positive Cultures per Total, percent (Ad5 McEwen; Day 3): 100% | Positive Cultures per Total (Ad5 McEwen; Day 4): 9/10 | Positive Cultures per Total, percent (Ad5 McEwen; Day 4): 90% | Positive Cultures per Total (Ad5 McEwen; Day 5): 7/10 | Positive Cultures per Total, percent (Ad5 McEwen; Day 5): 70% | Positive Cultures per Total (Ad5 McEwen; Day 7): 2/10 | Positive Cultures per Total, percent (Ad5 McEwen; Day 7): 20% | Positive Cultures per Total (Ad5 McEwen; Day 9): 0/10 | Positive Cultures per Total, percent (Ad5 McEwen; Day 9): 0% | Positive Cultures per Total (Ad5 McEwen; Day 11): 0/10 | Positive Cultures per Total, percent (Ad5 McEwen; Day 11): 0% | Positive Cultures per Total (Ad5 McEwen; Day 14): 0/10 | Positive Cultures per Total, percent (Ad5 McEwen; Day 14): 0% | Positive Cultures per Total, Total (Ad5 McEwen; [3]): 36/40 | Positive Cultures per Total, Total (%) (Ad5 McEwen; [3]): 90% | Positive Cultures per Total, Total (Ad5 McEwen; Days 1-14): 38/80 | Positive Cultures per Total, Total (%) (Ad5 McEwen; Days 1-14): 47.5% | Positive Cultures per Total, Total (%) (Ad5 McEwen; Days 1-14, listed as Cidofovir): 47.5% | Positive Cultures per Total, Total (Ad5 McEwen; [4]): 2/40 | Positive Cultures per Total, Total (%) (Ad5 McEwen; [4]): 5% | Positive Cultures per Total, Total (%) (Ad5 McEwen; Days 7-14, Late Phase of Infection, listed as Cidofovir): 5% | Mean Combined Ocular Titers Days 7-14, comparison (Ad5 McEwen; Late Phase): significantly lower Mean Combined Ocular Titers Days 7-14 compared with NPR | Positive Cultures per Total Days 7-14, comparison (Ad5 McEwen; Late Phase): significantly fewer Positive Cultures per Total Days 7-14 compared with NPR | Antiviral efficacy, conclusion (Ad5 McEwen; compared to Saline control): demonstrated its proven antiviral efficacy | Mean Daily Ocular Titers, statistical comparison (Ad5 McEwen; days as stated): significantly lower titers on Days 1 and 7 compared with NPR | Duration of Shedding, individual eye (Ad5 McEwen; final day with positive Ad5 culture, listed as CDV): 5 days (5×) and 4 days (2×) and 7 days (2×) and 3 days | Duration of viral shedding, group mean (Ad5 McEwen; mean of 10 eyes): 5.0 days | Mean Duration of Shedding, comparison (Ad5 McEwen; rabbit, in vivo): significantly shorter durations of shedding compared with the NPR | Adenoviral Positive Culture/total, Early Phase (Ad5 [2]; Days 1-5): 72/80 | Adenoviral Positive Culture/total, Early Phase, percent (Ad5 [2]; Days 1-5): 90.0% | Mean Combined Ad5 titer, Early Phase, Mean ± Sd (Ad5 [2]; Days 1-5, n = 80): 1.4 ± 2.1 × 10^3 pfu/ml | Adenoviral Positive Culture/total, Overall (Ad5 [2]; Days 1-14): 78/160 | Adenoviral Positive Culture/total, Overall, percent (Ad5 [2]; Days 1-14): 48.75% | Adenoviral Positive Culture/total, Late Phase (Ad5 [2]; Days 7-14): 6/80 | Adenoviral Positive Culture/total, Late Phase, percent (Ad5 [2]; Days 7-14): 7.5% | Mean Combined Ad5 titer, Late Phase, Mean ± Sd (Ad5 [2]; Days 7-14, n = 80): 0.8 ± 0.4 × 10^0 pfu/ml | Duration of Ad5 Shedding, Mean ± Sd (Ad5 [2]; n = 20): 5.3 ± 1.3 days | Antiviral activity, overall comparison (Ad5 [2]; rabbit, in vivo): equivalent antiviral inhibitory activity | Duration of shedding, comparison (Ad5 [2]; rabbit, in vivo): significantly decreased the duration of shedding compared with the saline control; also recorded: significantly decreased the Mean Duration of shedding compared with IG

— patent US20080031903A1, “METHOD OF TREATING OCULAR INFECTIONS” (priority 2006, published 2008)
